Experimental data from patent publication US12503452B2 (Curza Global, LLC, priority 2019, dated 2025).
Counter-ions that a name gives are not always drawn. Like-named read-outs stand apart in the source and are kept apart here.

Assays:
[1] = tested on: E. coli S30 extract (bacterial protein synthesis); assay: E. coli S30 extract coupled transcription-translation luciferase assay (inhibition of bacterial protein synthesis); type: biochemical; conditions: read-out: S30 IC50 (μM/% inhib.)
In short: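 Luminescent read-out of luciferase made from pBESTluc DNA by E. coli S30 extract after 1 h at 37 °C with compound in an 8-point 2-fold series. Background came from no-DNA reactions. Percent inhibition was calculated against water-only controls.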

[2] = target: Rabbit Reticulocyte Lysate (eukaryotic protein synthesis); assay: Rabbit reticulocyte lysate luciferase assay (inhibition of eukaryotic protein synthesis); type: biochemical; conditions: read-out: Rabbit reticulocyte IC50 (μM/% inhib.)
In short: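 Compounds were tested in 8-point 2-fold dilution series for blocking luciferase synthesis in nuclease-treated rabbit reticulocyte lysate (30° C., 90 minutes). Luminescence read-out, corrected by no-RNA background, was expressed as % inhibition against water-only reactions.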

S. aureus (Sa) = assay: Broth microdilution minimum inhibitory concentration (MIC); type: cell-based; conditions: Staphylococcus aureus, read-out: Sa + bicarb MIC
In short: (§1)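 Two-fold compound series, 8 points in triplicate; medium CAMHB ± NaHCO3 (6.25 or 25 mM final) or ± 0–50% heat-inactivated human serum; inoculum 5×10^4 CFU/well; growth-method 0.5 McFarland suspensions; modified CLSI M07-A9.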

E. coli (Ec) = assay: as above; type: cell-based; conditions: Escherichia coli, read-out: E. coli + bicarb MIC
In short: as §1

P. aeruginosa (Pa) = assay: as above; type: cell-based; conditions: Pseudomonas aeruginosa, read-out: Pa MIC + bicarb
In short: as §1

A. baumannii (Ab) = assay: as above; type: cell-based; conditions: Acinetobacter baumannii, read-out: Ab + bicarb MIC
In short: as §1

E. faecalis (Ef) = assay: as above; type: cell-based; conditions: Enterococcus faecalis, read-out: Ef + bicarb MIC
In short: as §1

[3] = class by IC50 or % inhibition @ 1 μM
[4] = S. aureus, growth medium with sodium bicarbonate
[5] = E. coli, growth medium with sodium bicarbonate
[6] = P. aeruginosa, growth medium with sodium bicarbonate
[7] = A. baumannii, growth medium with sodium bicarbonate
[8] = E. faecalis, growth medium with sodium bicarbonate
[9] = S. aureus, growth medium supplemented with sodium bicarbonate
[10] = E. coli, growth medium supplemented with sodium bicarbonate
[11] = P. aeruginosa, growth medium supplemented with sodium bicarbonate
[12] = A. baumannii, growth medium supplemented with sodium bicarbonate
[13] = E. faecalis, growth medium supplemented with sodium bicarbonate

| Compound | IC50 [1, 3] [µM] | IC50 [2, 3] [µM] | MIC (S. aureus (Sa); [4]) [µg/mL] | MIC (E. coli (Ec); [5]) [µg/mL] | MIC (P. aeruginosa (Pa); [6]) [µg/mL] | MIC (A. baumannii (Ab); [7]) [µg/mL] | MIC (E. faecalis (Ef); [8]) [µg/mL] | IC50 ([1]; % inhibition @ 1 μM) [µM] | IC50 ([2]; % inhibition @ 1 μM) [µM] | MIC (S. aureus (Sa)) [µg/mL] | MIC (E. coli (Ec)) [µg/mL] | MIC (P. aeruginosa (Pa)) [µg/mL] | MIC (A. baumannii (Ab)) [µg/mL] | MIC (E. faecalis (Ef)) [µg/mL] | MIC (S. aureus (Sa); [9]) [µg/mL] | MIC (E. coli (Ec); [10]) [µg/mL] | MIC (P. aeruginosa (Pa); [11]) [µg/mL] | MIC (A. baumannii (Ab); [12]) [µg/mL] | MIC (E. faecalis (Ef); [13]) [µg/mL] |
| --- | --- | --- | --- | --- | --- | --- | --- | --- | --- | --- | --- | --- | --- | --- | --- | --- | --- | --- | --- |
| CN(Cc1ccc(-n2ccc(NC(=O)N3CCN(C(=O)[C@@](C)(N)CO)CC3)nc2=O)cc1)C1CCC(N)CC1 (stereo partly shown) [Compound 286] | < 0.5 | > 1 | < 8 | < 8 | > 32 | > 32 | < 8 | – | – | – | – | – | – | – | – | – | – | – | – |
| CCN(Cc1ccc(-n2ccc(NC(=O)N3CCN(C(=O)C(C)(C)N)CC3)nc2=O)cc1F)[C@H]1CC[C@H](N)CC1 [Compound 355] | – | – | – | – | – | – | – | < 0.5 | > 1 | < 8 | < 8 | > 32 | > 32 | < 8 | – | – | – | – | – |
| CC(C)(N)C(=O)N1CCN(C(=O)Nc2ccn(-c3ccc(CCCN4CC(N)C4)cc3)c(=O)n2)CC1 [Compound 32] | > 1 | > 1 | – | – | – | – | – | – | – | – | – | – | – | – | 8 to 32 | 8 to 32 | > 32 | > 32 | > 32 |
| C[C@@H]1CN(C(=O)C(C)(C)N)CCN1C(=O)Nc1ccn(-c2ccc(CCN3CCCC(N)CC3)cc2)c(=O)n1 (stereo partly shown) [Compound 90] | < 0.5 | > 1 | – | – | – | – | – | – | – | – | – | – | – | – | < 8 | < 8 | > 32 | < 8 | < 8 |
| C[C@@](N)(CO)C(=O)N1CCN(C(=O)Nc2ccn(-c3ccc(CCN4CCCC(N)CC4)cc3)c(=O)n2)CC1 (stereo partly shown) [Compound 35] | > 1 | > 1 | – | – | – | – | – | – | – | – | – | – | – | – | < 8 | < 8 | 8 to 32 | > 32 | < 8 |
| CO[C@H]1C[C@@H](N(C)Cc2ccc(-n3ccc(NC(=O)N4CCN(C(=O)C(C)(C)N)CC4)nc3=O)cc2)CC[C@@H]1N [Compound 340, hydrochloride salt] | 0.5 to 1 | > 1 | – | – | – | – | – | – | – | 8 to 32 | < 8 | > 32 | > 32 | > 32 | – | – | – | – | – |
| CC(Cc1ccc(-n2ccc(NC(=O)N3CCN(C(=O)C(C)(C)N)CC3)nc2=O)cc1)N1CCC(C2CNC2)CC1 (stereo not shown) [Compound 379] | – | – | < 8 | < 8 | > 32 | > 32 | > 32 | > 1 | > 1 | – | – | – | – | – | – | – | – | – | – |
| C[C@H](N)C1CCN(Cc2ccc(-n3ccc(NC(=O)N4CCN(C(=O)C(C)(C)N)CC4)nc3=O)cc2)CC1 [Compound 220] | < 0.5 | > 1 | < 8 | < 8 | > 32 | 8 to 32 | 8 to 32 | – | – | – | – | – | – | – | – | – | – | – | – |
| CC(C)(N)C(=O)N1CCN(C(=O)Nc2ccn(-c3ccc(CN4CC[C@@H](N)[C@H](O)C4)cc3)c(=O)n2)CC1 [Compound 268] | > 1 | > 1 | 8 to 32 | 8 to 32 | > 32 | > 32 | > 32 | – | – | – | – | – | – | – | – | – | – | – | – |
| CC(C)(N)C(=O)N1CCN(C(=O)Nc2ccn(-c3ccc(CCN4CCC(N)CC4)cc3)c(=O)n2)CC1 [Compound 198] | < 0.5 | > 1 | 8 to 32 | < 8 | > 32 | > 32 | 8 to 32 | – | – | – | – | – | – | – | – | – | – | – | – |
| NC1CCN(Cc2ccc(-n3ccc(NC(=O)N4C[C@H]5C[C@@H](N)C[C@H]5C4)nc3=O)cc2)CC1 [Compound 295, trifluoroacetate salt] | > 1 | > 1 | – | – | – | – | – | – | – | > 32 | > 32 | > 32 | > 32 | > 32 | – | – | – | – | – |
| CC(Cc1ccc(-n2ccc(NC(=O)N3CCN(C(=O)C(C)(C)N)CC3)nc2=O)cc1)N(C)CC1CNC1 (stereo not shown) [Compound 166] | > 1 | > 1 | 8 to 32 | 8 to 32 | > 32 | > 32 | > 32 | – | – | – | – | – | – | – | – | – | – | – | – |
| CC(C)(N)C(=O)N1CCN(C(=O)Nc2ccn(-c3ccc(CN4CCCC(N)CC4)c(F)c3)c(=O)n2)CC1 (stereo not shown) [Compound 334, hydrochloride salt] | < 0.5 | > 1 | – | – | – | – | – | – | – | 8 to 32 | < 8 | > 32 | > 32 | > 32 | – | – | – | – | – |
